We go through seven compounds from patent US20050272817A1, “Dermatological use and a dermatological preparation” (priority 2000, published 2005).

Test [1] concerns thyroid hormone activity. The following applies: background statement; cited from earlier work.
Test [2] relates to psoriatic plaque. Description: Topical T4P ointment on a previously untreated psoriatic plaque. The class given is in vivo, human. The following applies: T4P 25 μg/cm^2 twice per 24 hours for 35 days; follow-up 42 days. Here is the method: The topical effect of T4P, 3,3′,5,5′-tetraiodothyropropionic acid ointment on a previously untreated psoriatic plaque, on psoriasis was studied in a therapeutic design identical with the above. The dosage of T4P was 25 μg/cm^2 twice per 24 hours for 35 days. The follow-up period was 42 days. […] Effect of 3,3′,5,5′-tetraiodothyropropionic acid (T4P) ointment on a previously untreated psoriatic plaque. The dosage of T4P was 25 μg/cm^2 twice per 24 hours for 35 days. The follow-up period was 42 days.

In test [3] the test system is psoriatic plaques. Briefly: Additional embodiment: topical T3A or D-T4 with or without T4A on psoriatic plaques, 35 days. The following applies: for effect on psoriatic rash (conclusions, in words): topically administered. The class given is in vivo, human. As for the experimental part: Simultaneous topical treatment of four untreated, typically scaling and demarcated dermatitic plaques (plaques 1-4) in a psoriatic patient was undertaken. Plaque 5 was left untreated for comparison.
The areas of the plaques at initiation of the treatment were as follows: plaque 1: 5.3 cm^2, plaque 2: 4.9 cm^2, plaque 3: 6.4 cm^2, plaque 4: 5.3 cm^2; plaque 5: 5.6 cm^2.
Triacana® cream containing 200 μg 3,5,3′-triiodothyroacetic acid, T3A, (triac, tiratricol) per gram.
Triacana® cream plus Locobase® unctuous cream containing 500 μg 3,3′,5,5′-tetraiodothyroacetic acid, T4A, per gram (University Pharmacy, Helsinki, Finland. Ex tempore-preparation).
Locobase® unctuous cream containing 2500 μg D-thyroxine, D-T4, per gram (University Pharmacy, Helsinki, Finland. Ex tempore-preparation).
Locobase® unctuous cream containing 2500 μg D-thyroxine, D-T4, per gram (University Pharmacy, Helsinki, Finland. Ex tempore-preparation) plus Locobase® unctuous cream containing 500 μg 3,3′,5,5′-tetraiodothyroacetic acid, T4A, per gram (University Pharmacy, Helsinki, Finland. Ex tempore-preparation).
Triacana® cream was applied to plaques 1 and 2 at 125 mg/cm^2 twice in 24 hours, corresponding to 50 μg 3,5,3′-triiodothyroacetic acid per cm^2 per 24 hours.
T4A-ointment was applied to plaque 2 concurrently with Triacana® cream at 50 mg/cm^2 twice in 24 hours, corresponding to 50 μg 3,3′,5,5′-tetraiodothyroacetic acid per cm^2 per 24 hours.
D-T4-ointment was applied to plaques 3 and 4 at 50 mg/cm^2 twice in 24 hours, corresponding to 250 μg D-T4, per cm^2 per 24 hours.
T4A-ointment was applied to plaque 4 concurrently with the D-T4-ointment at 50 mg/cm^2 twice in 24 hours corresponding to 50 μg/cm^2 3,3′,5,5′-tetraiodothyroacetic acid per cm^2 per 24 hours.
Treatment was continued in this manner for 35 days.

Test [4] relates to psoriatic plaques. Briefly: Continuation of the therapeutic trial from 35 days onward (to 70 days). As to conditions: for change (reduction) in plaque area: from day 35: plaque 2 (earlier Daivonex) no treatment, plaque 3 (earlier T4A) Locobase, plaque 4 (earlier T4A+T4) T4 ointment 5 μg/cm^2/24 h; for effect on psoriatic rash (in words): topically applied. The class given is in vivo, human. As for the experimental part: The therapeutic trial was continued from 35 days onward as follows:
Locobase® ointment containing […], T4, per gram (University Pharmacy, Helsinki, Finland).
As previously, the ointments were applied to the target plaques at 50 mg/cm^2 twice in 24 hours. Thus, the dose of T4 to plaque 4 was 5 μg T4 per cm^2 per 24 hours.

In test [5] the test system is psoriatic plaques. Briefly: Topical treatment of psoriatic plaques in a psoriatic patient, 35 days. The class given is in vivo, human. As to conditions: for change (reduction) in plaque area: ointment 50 mg/cm^2 twice in 24 hours. The text has this:
Simultaneous topical treatment of four untreated, typically scaling and sharply demarcated dermatitic plaques ([…]) in a psoriatic patient was undertaken. Plaque 5 was left untreated for comparison.
The areas of the plaques at initiation of the treatment were as follows: plaque 1: 8.7 cm^2; plaque 2: 8.1 cm^2; plaque 3: 6.8 cm^2; plaque 4: 6.1 cm^2; plaque 5: 6.4 cm^2.
The following ointments were applied to plaques 1-4:
Locobase.RTM. unctuous cream (Yamanouchi Europe B. V., Leiderup, Holland).
Daivonex.RTM. calcipotriol ointment containing 50µg calcipotriol per gram (L.o slashed.vens Kemiske Fabrik, Ballerup, Denmark).
Locobase.RTM.D unctuous cream containing 500µg 3,3′,5,5′-tetraiodothyroacetic acid, T4A, per gram (University Pharmacy, Helsinki, Finland).
Locobase.RTM. unctuous cream containing 500 μg T4A per gram and […], T4, per gram (University Pharmacy, Helsinki, Finland).
Each ointment was applied to the plaques at 50 mg/cm^2 twice in 24 hours, corresponding to 5µg calcipotriol per cm^2 per 24 hours for plaque 2, 50 μg T4A per cm^2 per 24 hours for plaques 3 and 4, and 5 μg T4 per cm^2 per 24 hours for plaque 4. Treatment was continued in this manner for 35 days.
The results are presented in Table 1 below, showing the change (reduction) in plaque area with time (days).

Test [6] concerns psoriasis. As to conditions: topical calcipotriol therapy; cited from earlier work.

The structures appear in SMILES notation.

With `N[C@@H](Cc1cc(I)c(Oc2ccc(O)c(I)c2)c(I)c1)C(=O)O` [T3, 3,3′,5-triiodo-L-thyronine, reference compound], in test [1], the “thyroid hormone activity relative to T4” value is on record as “five times that of T4”.

For `O=C(O)CCc1cc(I)c(Oc2cc(I)c(O)c(I)c2)c(I)c1` [T4P, 3,3′,5,5′-tetraiodothyropropionic acid], in test [2], the “inhibition of the effects of T4” value is reported as “completely inhibit the effects of T4” and the “therapeutic efficacy compared with T4A” value was “equal to T4A in therapeutic efficacy”. In addition, the “thyroid hormone activity relative to T4” value in test [1] is given as “about one-fourth”.

With `O=C(O)Cc1cc(I)c(Oc2ccc(O)c(I)c2)c(I)c1` [T3A, 3,5,3′-triiodothyroacetic acid], the “effect on psoriatic rash (conclusions, in words)” value (“effect … (conclusions, in words)” below) in test [3] was “did not have any visible effect”.

Turning to `N[C@@H](Cc1cc(I)c(Oc2cc(I)c(O)c(I)c2)c(I)c1)C(=O)O` [T4, 3,3′,5,5′-tetraiodo-L-thyronine, reference compound], the “change (reduction) in plaque area” value in test [4] (42 days) is listed as 70%; in test [4] (50 days) it was 25%; in test [4] (62 days), -10%; in test [4] (70 days) it was −50% ^. Further, in test [4] (T4 ointment 5 μg/cm^2/24 h from day 35 to day 70, plaque previously treated with T4A+T4), the “increase of the area of plaque 4 compared with baseline” value was 50%. For the same compound, the “effect on psoriatic rash (in words)” value in test [4] is given as “worsened”.

Consider `O=C(O)Cc1cc(I)c(Oc2cc(I)c(O)c(I)c2)c(I)c1` [T4A, 3,3′,5,5′-tetraiodothyroacetic acid], for which the “change (reduction) in plaque area” value in test [5] (14 days) is listed as 45%; in test [5] (21 days) it was 65%; in test [5] (28 days) it was 85%; in test [5] (35 days), 90%; in test [4] (42 days), 95%; in test [4] (50 days) it was 95%. The results for the “change (reduction) in plaque area” value in test [4] (62 days) and in test [4] (70 days) were 90% and 80%, respectively. The “effect on psoriatic plaques (in words)” value in test [5] (35 days topical treatment) is listed as “clear effect”. In test [5] (35 days topical treatment), the “therapeutic efficacy in terms of reduction in plaque area, compared with calcipotriol ointment” value is on record as “better than that of the calcipotriol ointment”. Also, in test [4] (topical T4A 50 μg/cm^2/24 h with T4 5 μg/cm^2/24 h), the “inhibition of the rash-worsening effect of T4” value is reported as “completely inhibits this effect”. The “effect on psoriatic rash (in words)” value in test [4] is reported as “therapeutically efficacious”. Besides, in test [3], the “effect … (conclusions, in words)” value was “separate and prominent antipsoriatic effect”. Besides, the “thyroid hormone activity relative to T4” value in test [1] was “about one-fourth”.

`N[C@H](Cc1cc(I)c(Oc2cc(I)c(O)c(I)c2)c(I)c1)C(=O)O` [D-T4, D-thyroxine]: the “changes in the area or appearance of the plaque during the whole treatment period” value in test [3] (35 days, T3A 50 μg/cm^2/24 h or D-T4 250 μg/cm^2/24 h alone) is reported as “no visible changes”. In addition, the “effect … (conclusions, in words)” value in test [3] is recorded as “did not have any visible effect”. The “thyroid hormone activity relative to T4” value in test [1] is reported as “substantially less thyroid hormone activity than T4”.

On to `C=C1/C(=C\C=C2/CCC[C@]3(C)[C@@H]([C@H](C)/C=C/[C@@H](O)C4CC4)CC[C@@H]23)C[C@@H](O)C[C@@H]1O` [calcipotriol], for which, in test [6], the “complete removal of dermatitic plaques, share of cases” value is reported as “about 15%”.
